For experiment [1], the target named is T1, PYR1 K59R F108A S122G A160V (Arabidopsis thaliana, UniProt O49686, A160V/F108A/K59R/S122G).
T1 construct: expressed in transfected cells; host or cells: S. cerevisiae Y190 pACT-HAB1
The experiment is described as follows: Y2H NNK Mutagenesis (HAB1, X-gal). Type of experiment: cell-based. How it is done: (§1) The preceding efforts identified PYR1^K59R,F108A,S122G, which is responsive to mandipropamid concentrations as low as 1 μM. We next attempted to improve the mandipropamid receptor by screening for additional pocket-located mutations that improve compound responsiveness. We subjected PYR1^K59R,F108A,S122G to two separate mutagenesis experiments. We first examined the effects of adding single additional mutations at each of the other 23 ligand-contacting residues that are not altered in the PYR1^K59R,F108A,S122G backbone, using NNK codon-randomization primers. Each NNK primer was used to generate a pool of PYR1^K59R,F108A,S122G receptors containing additional mutations at a single ligand-contacting residue. DNA for this mutant pool was prepared and then transformed into a pACT-HAB1 MAV99 reporter strain, which allows URA3 based selection of active receptors (Peterson et al., 2010). The pooled yeast cells were plated on media containing 0.5 μM mandipropamid, a concentration too low to allow growth of a control MAV99 pACT-HAB1 reporter strain expressing pBD-PYR1^K59R,F108A,S122G. […] Mutants enabling ligand-dependent interactions were sequenced and plasmid DNA for these mutants was isolated and introduced into Y190 pACT-HAB1 so that X-gal staining could be utilized to evaluate receptor sensitivity. This process was repeated for each of the remaining 22 NNK primers. These efforts yielded 10 mutations (V81C, V81I, V81T, V83L, L87A, F159L, F159M, F159V, A160V, V164I) that enhance the mandipropamid sensitivity of PYR1^K59R,F108A,S122G (see entries labeled “NNK Mutagenesis Screen” in Table 1).

In experiment [2] the target is T2, PYR1 K59R F108A S122G F159L (Arabidopsis thaliana, UniProt O49686, F108A/F159L/K59R/S122G).
T2 construct: expressed in transfected cells; host or cells: S. cerevisiae Y190 pACT-HAB1
T2 sequence (O49686 whole entry K59R/F108A/S122G/F159L): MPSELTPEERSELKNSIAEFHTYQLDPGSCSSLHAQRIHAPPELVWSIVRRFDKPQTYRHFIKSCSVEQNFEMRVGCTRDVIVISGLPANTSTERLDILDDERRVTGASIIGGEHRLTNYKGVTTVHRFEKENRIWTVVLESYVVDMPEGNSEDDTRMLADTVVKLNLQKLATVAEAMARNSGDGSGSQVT
T2 sequence (Q9CAJ0 23-511 partner): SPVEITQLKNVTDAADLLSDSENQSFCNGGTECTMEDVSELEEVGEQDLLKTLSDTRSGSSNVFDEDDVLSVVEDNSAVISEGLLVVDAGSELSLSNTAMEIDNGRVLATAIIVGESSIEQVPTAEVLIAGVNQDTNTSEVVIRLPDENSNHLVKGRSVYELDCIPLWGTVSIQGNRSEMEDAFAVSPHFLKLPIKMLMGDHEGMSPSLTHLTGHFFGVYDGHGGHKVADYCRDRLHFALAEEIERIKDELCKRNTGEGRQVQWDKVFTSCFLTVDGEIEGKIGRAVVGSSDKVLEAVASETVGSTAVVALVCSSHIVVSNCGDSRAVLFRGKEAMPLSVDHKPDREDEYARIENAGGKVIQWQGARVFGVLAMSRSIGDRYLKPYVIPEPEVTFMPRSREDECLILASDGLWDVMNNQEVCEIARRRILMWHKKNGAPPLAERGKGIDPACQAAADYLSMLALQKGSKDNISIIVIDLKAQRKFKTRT
The experiment is described as follows: Y2H NNK Mutagenesis (HAB1, X-gal). Type of experiment: cell-based. The method, then: as §1

For experiment [3], the target named is T3, PYR1 K59R F108A S122G F159M (Arabidopsis thaliana, UniProt O49686, F108A/F159M/K59R/S122G).
T3 construct: expressed in transfected cells; host or cells: S. cerevisiae Y190 pACT-HAB1
T3 sequence (O49686 whole entry K59R/F108A/S122G/F159M): as the sequence (O49686 whole entry K59R/F108A/S122G/F159L) above, with L159M counted along it
T3 sequence (Q9CAJ0 23-511 partner): as the sequence (Q9CAJ0 23-511 partner) above
The experiment is described as follows: Y2H NNK Mutagenesis (HAB1, X-gal). Type of experiment: cell-based. The method, then:
as §1

The target in experiment [4] is T4, PYR1 K59R F108A S122G F159V (Arabidopsis thaliana, UniProt O49686, F108A/F159V/K59R/S122G).
T4 construct: expressed in transfected cells; host or cells: S. cerevisiae Y190 pACT-HAB1
T4 sequence (O49686 whole entry K59R/F108A/S122G/F159V): as the sequence (O49686 whole entry K59R/F108A/S122G/F159L) above, with L159V counted along it
T4 sequence (Q9CAJ0 23-511 partner): as the sequence (Q9CAJ0 23-511 partner) above
The experiment is described as follows: Y2H NNK Mutagenesis (HAB1, X-gal). Type of experiment: cell-based. How it is done:
as §1

In experiment [5] the target is T5, PYR1 K59R F108A S122G L87A (Arabidopsis thaliana, UniProt O49686, F108A/K59R/L87A/S122G).
T5 construct: expressed in transfected cells; host or cells: S. cerevisiae Y190 pACT-HAB1
T5 sequence (O49686 whole entry K59R/L87A/F108A/S122G): as the sequence (O49686 whole entry K59R/F108A/S122G/F159L) above, with L87A, L159F counted along it
T5 sequence (Q9CAJ0 23-511 partner): as the sequence (Q9CAJ0 23-511 partner) above
The experiment is described as follows: Y2H NNK Mutagenesis (HAB1, X-gal). Type of experiment: cell-based. The method, then: as §1

Experiment [6] concerns the target T6, PYR1 K59R F108A S122G V164I (Arabidopsis thaliana, UniProt O49686, F108A/K59R/S122G/V164I).
T6 construct: expressed in transfected cells; host or cells: S. cerevisiae Y190 pACT-HAB1
The experiment is described as follows: Y2H NNK Mutagenesis (HAB1, X-gal). Type of experiment: cell-based. The method, then: as §1

The target of experiment [7] is T7, PYR1 K59R F108A S122G V81C (Arabidopsis thaliana, UniProt O49686, F108A/K59R/S122G/V81C).
T7 construct: expressed in transfected cells; host or cells: S. cerevisiae Y190 pACT-HAB1
T7 sequence (O49686 whole entry K59R/V81C/F108A/S122G): as the sequence (O49686 whole entry K59R/F108A/S122G/F159L) above, with V81C, L159F counted along it
T7 sequence (Q9CAJ0 23-511 partner): as the sequence (Q9CAJ0 23-511 partner) above
The experiment is described as follows: Y2H NNK Mutagenesis (HAB1, X-gal). Type of experiment: cell-based. The method, then: as §1

Experiment [8] concerns the target T8, PYR1 K59R F108A S122G V81I (Arabidopsis thaliana, UniProt O49686, F108A/K59R/S122G/V81I).
T8 construct: expressed in transfected cells; host or cells: S. cerevisiae Y190 pACT-HAB1
The experiment is described as follows: Y2H NNK Mutagenesis (HAB1, X-gal). Type of experiment: cell-based. How it is done:
as §1

Experiment [9] deals with T9, PYR1 K59R F108A S122G V81T (Arabidopsis thaliana, UniProt O49686, F108A/K59R/S122G/V81T).
T9 construct: expressed in transfected cells; host or cells: S. cerevisiae Y190 pACT-HAB1
T9 sequence (O49686 whole entry K59R/V81T/F108A/S122G): as the sequence (O49686 whole entry K59R/F108A/S122G/F159L) above, with V81T, L159F counted along it
T9 sequence (Q9CAJ0 23-511 partner): as the sequence (Q9CAJ0 23-511 partner) above
The experiment is described as follows: Y2H NNK Mutagenesis (HAB1, X-gal). Type of experiment: cell-based. How it is done: as §1

Experiment [10] addresses T10, PYR1 K59R F108A S122G V83L (Arabidopsis thaliana, UniProt O49686, F108A/K59R/S122G/V83L).
T10 construct: expressed in transfected cells; host or cells: S. cerevisiae Y190 pACT-HAB1
The experiment is described as follows: Y2H NNK Mutagenesis (HAB1, X-gal). Type of experiment: cell-based. The method, then: as §1

The target in experiment [11] is T11, PYR1 Y58H K59R V81I F108A S122G V164I (Arabidopsis thaliana, UniProt O49686, F108A/K59R/S122G/V164I/V81I/Y58H).
T11 construct: expressed in transfected cells; host or cells: S. cerevisiae Y190 pACT-HAB1
T11 sequence (O49686 whole entry Y58H/K59R/V81I/F108A/S122G/V164I): as the sequence (O49686 whole entry K59R/F108A/S122G/F159L) above, with Y58H, V81I, L159F, V164I counted along it
T11 sequence (Q9CAJ0 23-511 partner): as the sequence (Q9CAJ0 23-511 partner) above
The experiment is described as follows: Y2H Combinatorial Mutagenesis II (HAB1, X-gal). Type of experiment: cell-based. An excerpt: (§2) Both of the above optimization experiments led to the identification of the following mutations that, when introduced one at a time, enhance the mandipropamid sensitivity of PYR1^K59R,F108A,S122G: Y58H, V81C, V81I, V81T, V83L, L87A, F159L, F159M, F159V, A160V and V164I. Given that these each enhance sensitivity on their own, we tested if combinations of these mutations might generate more sensitive receptors. Mutagenic primers for each of the mutations were designed and used simultaneously with the QuickChange Lightning Multi Site-Directed Mutagenesis kit (Agilent, USA) with PYR1^K59R,F108A,S122G template DNA. Individual clones were sequenced to identify bona fide combination mutants, which were transformed into the Y190 pACT-HAB1 yeast strain and assayed for mandipropamid sensitivity. These efforts led to the identification of several improved receptors (“Combinatorial Mutagenesis Screen II”, Table 1), including PYR1^Y58H,K59R,V81I,F108A,S122G,F159L, a hextuple mutant that we have named PYR1^MANDI. Yeast reporter strains expressing this mutant are responsive to mandipropamid concentrations as low as 2 nM (Table 1). Thus, the 5-step mutagenesis protocol we followed led to the construction of a mandipropamid responsive receptor with nanomolar sensitivity.

The target of experiment [12] is T12, PYR1 Y58H K59R V83L F108A S122G (Arabidopsis thaliana, UniProt O49686, F108A/K59R/S122G/V83L/Y58H).
T12 construct: expressed in transfected cells; host or cells: S. cerevisiae Y190 pACT-HAB1
T12 sequence (O49686 whole entry Y58H/K59R/V83L/F108A/S122G): as the sequence (O49686 whole entry K59R/F108A/S122G/F159L) above, with Y58H, V83L, L159F counted along it
T12 sequence (Q9CAJ0 23-511 partner): as the sequence (Q9CAJ0 23-511 partner) above
The experiment is described as follows: Y2H Combinatorial Mutagenesis II (HAB1, X-gal). Type of experiment: cell-based.
Description: as §2

The test system of experiment [13] is PYR1^MANDI expressing transgenic plants (E15, E16, F29, F34). The experiment is described as follows: water loss of detached rosettes. Type of experiment: in vivo, Arabidopsis. The following applies: 2 μM mandipropamid, 24 hours before detachment. How it is done: As another measure of guard cell physiology, we measured rates of water loss in transgenic and control plants exposed to mock or mandipropamid treatments. It is well known that ABA treatments reduce leaf water loss via guard cell closure. 3 week-old homozygous transgenic plants (E15, E16, F29 and F34) and control wild type plants were treated with 2 μM mandipropamid or mock solutions (with 0.02% Silwet as described above). After 24 hours, whole rosettes were detached and their masses monitored over time. […] These experiments, together with the thermal imaging experiments, indicate that mandipropamid can reduce guard cell aperture and reduce transpiration rates in PYR1^MANDI expressing transgenic plants, just as ABA is well known to do to wild type plants.

T6 sequence (O49686 whole entry K59R/F108A/S122G/V164I): as the sequence (O49686 whole entry K59R/F108A/S122G/F159L) above, with L159F, V164I counted along it
T6 sequence (Q9CAJ0 23-511 partner): as the sequence (Q9CAJ0 23-511 partner) above
T1 sequence (O49686 whole entry K59R/F108A/S122G/A160V): as the sequence (O49686 whole entry K59R/F108A/S122G/F159L) above, with L159F, A160V counted along it
T1 sequence (Q9CAJ0 23-511 partner): as the sequence (Q9CAJ0 23-511 partner) above
T8 sequence (O49686 whole entry K59R/V81I/F108A/S122G): as the sequence (O49686 whole entry K59R/F108A/S122G/F159L) above, with V81I, L159F counted along it
T8 sequence (Q9CAJ0 23-511 partner): as the sequence (Q9CAJ0 23-511 partner) above
T10 sequence (O49686 whole entry K59R/V83L/F108A/S122G): as the sequence (O49686 whole entry K59R/F108A/S122G/F159L) above, with V83L, L159F counted along it
T10 sequence (Q9CAJ0 23-511 partner): as the sequence (Q9CAJ0 23-511 partner) above

For the compound `C#CCOc1ccc(CCNC(=O)C(OCC#C)c2ccc(Cl)cc2)cc1OC` (stereo not shown) [Mandipropamid, mandipropamid], the Threshold in experiment [1] is 0.25 µM; in experiment [2], 0.05 µM; in experiment [3], 0.25 µM; in experiment [4] it was 0.25 µM; in experiment [5] it was 0.25 µM; in experiment [6], 0.25 µM. For the same compound, the Threshold turned out to be 0.25 µM in [7]; 0.25 µM in experiment [8]; 0.25 µM in experiment [9]; 0.05 µM in experiment [10]; 0.01 µM in experiment [11]; 0.01 µM in experiment [12]. Further, the “water loss of detached rosettes” value in [13] is reported as “lower water loss”.

The record behind these values is US9738902B2, “Modified PYR/PYL receptors activated by ligands” (priority 2013, dated 2017).
